Test results as given in PMC10791743, “Selective CK1α degraders exert antiproliferative activity against a broad range of human cancer cell lines” (Nature Communications, 2024).
Where “and” joins values, the source holds several entries; their conditions need not be identical. Equal values may be shown once. Entries after “also recorded” stand apart in the source; their conditions may differ.

Legend:
MOLM-13 cells = assay: TMT quantitative proteomics in MOLM-13; assay type: cell-based, human; conditions: for Proteins with significantly reduced abundance (TMT proteomics): 1 μM; for TMT protein intensity, CDKN1A, replicate values: DMSO 3.10E+04, 3.47E+04; for TMT protein intensity, CSNK1A1, replicate values: DMSO 4.01E+05, 4.09E+05
Procedure: We next carried out a tandem mass tag (TMT) quantitative proteomics experiment[30] to identify the neosubstrates whose degradation is induced by SJ7095. […] We confirmed the proteomics results by immunoblot analysis of CK1α in MOLM-13 cells following treatment with increasing concentrations of SJ7095 over 4 h (Fig. 2b). Under these conditions compound SJ7095 induced dose-dependent reduction of CK1α protein levels with DC50 value of 15 nM.
Each compound was tested in three wells of 2 million MOLM-13 cells each. […] Cells were then collected and washed with DPBS. Washed cells were centrifuged at 400×g for 5 min at 4 °C, the supernatant was removed, and pellets were snap frozen in liquid nitrogen and stored at −80 °C until sample submission.
The experiment was performed with a previously optimized protocol[30] with slight modification. Cell pellets were lysed in lysis buffer (50 mM HEPES, pH 8.5, 8 M urea, and 0.5% sodium deoxycholate). To profile the whole proteome, the protein lysates (approximately 100 µg of protein per sample) were proteolyzed with LysC (Wako) at an enzyme-to-substrate ratio of 1:100 (w/w) for 2 h at 21 °C. Following this the samples were diluted to a final 2 M Urea concentration, and further digested with trypsin (Promega) at an enzyme-to-substrate ratio of 1:50 (w/w) for at least 3 h. The peptides were reduced by adding 1 mM DTT for 30 min at 21 °C followed by alkylation with 10 mM iodoacetamide (IAA) for 30 min in the dark. The unreacted IAA was quenched with 30 mM DTT for 30 min. Finally, the digestion was stopped by adding trifluoroacetic acid (TFA) to 1%, desalted using C18 cartridges (Harvard Apparatus), and dried by speedvac. The purified peptides were resuspended in 50 mM HEPES (pH 8.5), and labeled with TMT reagents (Thermo Scientific). The differentially labeled samples were pooled equally, desalted, and dried for the subsequent peptide fractionation. Peptide analysis by two-dimensional liquid chromatography–tandem mass spectrometry (LC/LC–MS/MS) and MS data analysis are described in Supplementary Material. […]
Identification/quantification of proteins
The MS/MS raw data were processed by a tag-based hybrid search engine, JUMP7. The data was […]
concatenated with a reversed decoy database for evaluating False Discovery Rate (FDR). Searches were performed using a 15 ppm mass tolerance for precursor ions, fully tryptic restriction with two maximal missed cleavages, three maximal modification sites, and the assignment of b, and y ions.
TMT tags on lysine residues and N-termini (+304.2071453 Da for TMT16 and TMT18) were used for static modifications. In addition, oxidation of Methionine (Met) was considered as a dynamic modification (+15.99492 Da). Putative peptide spectral matches (PSMs) were filtered by mass accuracy and then grouped by precursor ion charge state and further filtered by JUMP-based matching scores, Jscore and ΔJn, to achieve the protein FDR below 1%. For quantification, TMT intensities of reporter ions were extracted, filtered, normalized, and summarized into peptide and […]
Differential expression analysis of proteins
Identification of differentially expressed proteins were conducted by the limma R package8. To control multiple testing, the Benjamini-Hochberg method was employed. Proteins with an adjusted […]
p value of < 0.05 and log2 fold change of > 2-fold of standard deviation (SD) were defined as differentially expressed. […]

p21 = p21 immunoblotting in MOLM-13 cells; assay type: cell-based, human; conditions: for p21 quantified protein expression (western blot): 3 western blots
[1] = Plasma protein binding assay (RED), mouse; assay type: in vitro ADME
Procedure: (§1) page 33: the need for further incubation. Following quenching, all plates were thoroughly mixed at 600 rpm for 10 minutes and centrifuged at 4000 rpm for 20 minutes. Supernatants were transferred to […] MS/MS analysis. Plasma stability was evaluated by determining the half-life through a least-squares fit of multiple time points based on first-order kinetics. Plasma protein binding assay: Test compound stock solutions were prepared at a concentration of 10 mM in DMSO. A Single-Use RED (Rapid Equilibrium Dialysis) device was acquired from Thermo Scientific (Cat. No: 99006, Rockford, IL). The sample preparation for plasma protein binding followed a modified version of Waters' method6. After thawing, plasma was centrifuged at 1000 rpm for 10 minutes to eliminate any particulates. Each compound was then prepared at a concentration of 10 µM in either human or mouse plasma. In the plasma protein binding assessment, 300 µL of spiked plasma solutions were introduced into the sample chamber (indicated by the red ring), while 550 µL of DPBS was added to the adjacent chamber. The plate was sealed and incubated at 37°C on an orbital shaker (100 rpm) for 4 hours. Post -incubation, 50 µL aliquots were withdrawn from each side of the insert and dispensed into a 96 -well storage plate. To create analytically identical sample matrices (matrix matching), an equivalent volume of blank plasma or DPBS was added to the necessary wells, followed by quenching w ith 3-fold (v:v) cold acetonitrile containing warfarin as the internal standard. Subsequently, the sealed plates were well -mixed at 600 rpm for 10 minutes and then centrifuged at 4000 rpm for 20 minutes. Supernatants were transferred to analytical […] Test compound concentrations were quantified in both the buffer and plasma chambers by determining peak areas relative to the internal standard. The percentage of the test compound bound to plasma was calculated using the following equation (4): %Free = (Concentration buffer chamber / concentration plasma chamber) x 100% and equation (5) %Bound = 100% - %Free.

[2] = Plasma protein binding assay (RED), human; assay type: in vitro ADME
Procedure: as §1

[3] = time course 0-8 hrs, relative to no treatment
[4] = mouse plasma, single replicates
[5] = human plasma, single replicates

O=C1CCC(N2Cc3cc(Nc4noc5ccccc45)ccc3C2=O)C(=O)N1 (centres unmarked) [SJ3149]
Proteins with significantly reduced abundance (TMT proteomics) (MOLM-13 cells; 4 h): significantly reduced the abundance of only CK1α out of >9000 proteins
Log2FC vs. DMSO, CSNK1A1 (MOLM-13 cells; 1uM, 4h): -0.851
Log2FC vs. DMSO, CTNNB1 (MOLM-13 cells; 1uM, 4h): 1.473
p21 induction, time course (p21; MOLM-13, 1 μM, 0-8 h): not present until 4 h; also recorded: does not occur until after 4 hours
p21 quantified protein expression (western blot) (p21; time 1 hr, relative to no treatment): 0.8518 and 1.28 and 0.8338
p21 quantified protein expression (western blot) (p21; time 2 hrs, relative to no treatment): 1.31 and 1.5551 and 1.213
p21 quantified protein expression (western blot) (p21; time 4 hrs, relative to no treatment): 4.341 and 2.673 and 4.158
p21 quantified protein expression (western blot) (p21; time 8 hrs, relative to no treatment): 4.765 and 2.907 and 5.628
IC50 (line fit, sigmoidal 4PL) of p21 expression versus time (p21; time course 0-8 hrs, X axis is time): 3.071
Bottom (line fit, sigmoidal 4PL) of p21 expression versus time (p21; [3]): 0.988
Top (line fit, sigmoidal 4PL) of p21 expression versus time (p21; [3]): 4.463
fraction unbound at 4 h, 10 µM ([1]; mouse, plasma): 0.038
fraction unbound at 4 h, 10 µM ([2]; human, plasma): 0.023

O=C1CCC(N2Cc3c(CNC(=O)c4ccc(F)cc4)cccc3C2=O)C(=O)N1 (centres unmarked) [SJ7095]
Log2FC vs. DMSO, CDKN1A (Cyclin-dependent kinase inhibitor 1) (MOLM-13 cells; 1uM, 4h): 1.031
Log2FC vs. DMSO, CSNK1A1 (Casein kinase I isoform alpha) (MOLM-13 cells; 1uM, 4h): -1.331
TMT protein intensity, CDKN1A, replicate values (MOLM-13 cells; 1uM, 4h): 6.19E+04 and 7.24E+04
TMT protein intensity, CSNK1A1, replicate values (MOLM-13 cells; 1uM, 4h): 1.55E+05 and 1.67E+05
Log2FC vs. DMSO, CDKN1A (Cyclin-dependent kinase inhibitor 1) (MOLM-13 cells; 1uM, 8h): 1.234
Log2FC vs. DMSO, CSNK1A1 (Casein kinase I isoform alpha) (MOLM-13 cells; 1uM, 8h): -1.306
TMT protein intensity, CDKN1A, replicate values (MOLM-13 cells; 1uM, 8h): 7.09E+04 and 8.39E+04
TMT protein intensity, CSNK1A1, replicate values (MOLM-13 cells; 1uM, 8h): 1.62E+05 and 1.65E+05
Log2FC vs. DMSO, CDKN1A (Cyclin-dependent kinase inhibitor 1) (MOLM-13 cells; 1uM, 24h): 1.074
Log2FC vs. DMSO, CSNK1A1 (Casein kinase I isoform alpha) (MOLM-13 cells; 1uM, 24h): -1.500
TMT protein intensity, CDKN1A, replicate values (MOLM-13 cells; 1uM, 24h): 7.28E+04 and 6.55E+04
TMT protein intensity, CSNK1A1, replicate values (MOLM-13 cells; 1uM, 24h): 1.44E+05 and 1.42E+05
Proteins significantly degraded (TMT proteomics) (MOLM-13 cells; 5 µM, 4 h): significant degradation of only three proteins out of over 9000 identified proteins was observed: CK1α, IKZF1, and IKZF3
Log2FC vs. DMSO, CDKN1A (MOLM-13 cells; 5uM, 4h): 1.546
Log2FC vs. DMSO, CSNK1A1 (MOLM-13 cells; 5uM, 4h): -1.318
Log2FC vs. DMSO, CDKN1A (Cyclin-dependent kinase inhibitor 1) (MOLM-13 cells; 5uM, 8h): 1.278
Log2FC vs. DMSO, CSNK1A1 (Casein kinase I isoform alpha) (MOLM-13 cells; 5uM, 8h): -1.485
TMT protein intensity, CDKN1A, replicate values (MOLM-13 cells; 5uM, 8h): 8.76E+04 and 7.22E+04
TMT protein intensity, CSNK1A1, replicate values (MOLM-13 cells; 5uM, 8h): 1.51E+05 and 1.38E+05
Log2FC vs. DMSO, CDKN1A (Cyclin-dependent kinase inhibitor 1) (MOLM-13 cells; 5uM, 24h): 1.163
Log2FC vs. DMSO, CSNK1A1 (Casein kinase I isoform alpha) (MOLM-13 cells; 5uM, 24h): -1.582
TMT protein intensity, CDKN1A, replicate values (MOLM-13 cells; 5uM, 24h): 7.42E+04 and 7.27E+04
TMT protein intensity, CSNK1A1, replicate values (MOLM-13 cells; 5uM, 24h): 1.48E+05 and 1.23E+05
Log2FC vs. DMSO, CDKN1A (Cyclin-dependent kinase inhibitor 1) (MOLM-13 cells; 10uM, 4h): 1.536
Log2FC vs. DMSO, CSNK1A1 (Casein kinase I isoform alpha) (MOLM-13 cells; 10uM, 4h): -1.354
TMT protein intensity, CDKN1A, replicate values (MOLM-13 cells; 10uM, 4h): 1.01E+05 and 8.94E+04
TMT protein intensity, CSNK1A1, replicate values (MOLM-13 cells; 10uM, 4h): 1.47E+05 and 1.71E+05
p21 protein levels (p21; MOLM-13, increasing concentrations, 4 h): dose-dependent upregulation of p21

O=C1CCC(N2Cc3cc(Nc4noc5ccccc45)ccc3C2=O)C(=O)N1 (centres unmarked) [SJ001043149-1]
AVG %Bound ([1]; mouse plasma, average of 3 replicates): 96.2%
%Bound [1, 4]: 96.641% and 95.489% and 96.3948%
%Free [1, 4]: 3.359% and 4.511% and 3.605%
AVG %Bound ([2]; human plasma, average of 3 replicates): 97.7%
%Bound [2, 5]: 97.5829% and 97.7158% and 97.77%
%Free [2, 5]: 2.417% and 2.284% and 2.23%

Cc1cccc(C(=O)Nc2ccc3c(c2)CN(C2CCC(=O)NC2=O)C3=O)c1 (centres unmarked) [SJ0040]
Proteins with significantly reduced abundance (TMT proteomics) (MOLM-13 cells; 4 h): significantly reduced the abundance of only CK1α out of >9000 proteins
Log2FC vs. DMSO, BHLHE40 (MOLM-13 cells; 1uM, 4h): 0.522
Log2FC vs. DMSO, CSNK1A1 (MOLM-13 cells; 1uM, 4h): -1.896
